In EP4778516A1, “CALCIFICATION ENHANCER FOR OSTEOBLAST MC3T3-E1 CELL” (Watanabe Oyster Laboratory Co., Ltd., priority 2023, dated 2025):

Tested on: MC3T3-E1 cells
Assay: Cell proliferation assay (cell counting)
Assay type: cell-based, mouse
Method: To examine progression of cell proliferation, MC3T3-E1 cells (1×10^5/ml medium per well) were cultured using a 24-well plate in a-MEM supplemented with 10% FBS and 1% P/S at 37°C in a water-saturated atmosphere containing 5% CO2 and 95% air. The cells were cultured for 1, 2, 3, 4, or 5 days in the presence of a vehicle (1% ethanol as final concentration) or DHMBA (10 mM). In another experiment, to evaluate the effects of increased concentrations of DHMBA on MC3T3-E1 cells, the cells (1×10^5/ml per well) were cultured using a 24-well plate in DMEM (containing 10% FBS and 1% P/S). The cells were cultured for 3 days in the presence of either a reagent vehicle (1% ethanol as final concentration) or DHMBA (0.1, 1, 10, 100, or 1000 mM).
To evaluate the effects of DHMBA on cell death of osteoblasts MC3T3-E1, the cells (1×10^5/ml medium per well in a 24-well plate) were cultured in a-MEM containing 10% FBS and 1% P/S. After culturing for 3 days until reaching subconfluence, either a reagent vehicle (1% ethanol as final concentration) or DHMBA (0.1, 1, 10, 100, or 1000 mM) was added, and the cells were further cultured for 48 hours. After culture, to count the number of cells attached to each well, a […] containing 0.05% trypsin and EDTA (0.1 ml per well) was added, and then the culture plates were incubated at 37°C for 2 minutes. Subsequently, a-MEM (0.9 ml) containing 10% FBS and 1% P/S was added, and the cells were detached and mixed by pipetting. The cell suspension (0.1 ml) was mixed with 0.1 ml of 0.5% trypan blue staining solution. By this staining, […]. Viable cells were counted under a microscope (Olympus MTV-3) using a hemocytometer (Sigma-Aldrich, St. Louis, MO) and a cell counter (H-102P, Line Seiki Co., Ltd., Tokyo, Japan), and the average of two counts was calculated. Cell numbers were expressed as the number per well.

In the case of COc1c(O)cc(CO)cc1O [DHMBA, 3,5-dihydroxy-4-methoxybenzyl alcohol], the “proliferation of MC3T3-E1 cells” value (DHMBA 10 mM, cultured 1, 2, 3, 4, or 5 days, vs vehicle (1% ethanol), Fig. 1A) is reported as “no significant change”, the “proliferation of MC3T3-E1 cells” value (DHMBA 0.1, 1, 10, or 100 mM, 3 days, Fig. 1B) is reported as “not changed” and the cell proliferation (DHMBA 1000 mM (highest concentration tested), 3 days, Fig. 1B) is reported as “significant decrease”. For the same compound, the “TNF-a-induced inhibition of cell proliferation” value (TNF-a 1 or 10 ng/ml plus DHMBA 1 or 10 mM, 3 days, Fig. 3A) was “suppressed”.
